Laboratory results published in ChEMBL document CHEMBL4477252, “Optimization of microtubule affinity regulating kinase (MARK) inhibitors with improved physical properties” (Bioorg Med Chem Lett, 2016).

Experiments:
[1] = molecular target: T1, Serine/threonine-protein kinase Sgk1 (Homo sapiens, UniProt O00141); test: Inhibition of recombinant human GST-tagged SGK catalytic domain expressed in baculovirus expression system by Z'-LYTE assay
T1 sequence (O00141 whole entry): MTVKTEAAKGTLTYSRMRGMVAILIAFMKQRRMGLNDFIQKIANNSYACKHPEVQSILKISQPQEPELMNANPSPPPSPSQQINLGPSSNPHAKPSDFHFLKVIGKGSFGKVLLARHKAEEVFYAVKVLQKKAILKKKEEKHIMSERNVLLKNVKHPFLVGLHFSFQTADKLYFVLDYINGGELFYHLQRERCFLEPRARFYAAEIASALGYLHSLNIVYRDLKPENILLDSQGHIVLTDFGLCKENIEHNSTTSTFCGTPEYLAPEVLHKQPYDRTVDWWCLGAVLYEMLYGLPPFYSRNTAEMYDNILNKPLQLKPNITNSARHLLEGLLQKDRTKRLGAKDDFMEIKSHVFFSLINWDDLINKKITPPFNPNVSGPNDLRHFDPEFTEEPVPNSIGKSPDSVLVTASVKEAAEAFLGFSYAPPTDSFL

[2] = molecular target: Fibroblast growth factor receptor 2 (Homo sapiens, UniProt P21802); test: Inhibition of recombinant human His-tagged cytoplasmic FGFR2 expressed in baculovirus expression system by Z'-LYTE assay
Sequence of Fibroblast growth factor receptor 2 (P21802 whole entry, the tested form may be a part): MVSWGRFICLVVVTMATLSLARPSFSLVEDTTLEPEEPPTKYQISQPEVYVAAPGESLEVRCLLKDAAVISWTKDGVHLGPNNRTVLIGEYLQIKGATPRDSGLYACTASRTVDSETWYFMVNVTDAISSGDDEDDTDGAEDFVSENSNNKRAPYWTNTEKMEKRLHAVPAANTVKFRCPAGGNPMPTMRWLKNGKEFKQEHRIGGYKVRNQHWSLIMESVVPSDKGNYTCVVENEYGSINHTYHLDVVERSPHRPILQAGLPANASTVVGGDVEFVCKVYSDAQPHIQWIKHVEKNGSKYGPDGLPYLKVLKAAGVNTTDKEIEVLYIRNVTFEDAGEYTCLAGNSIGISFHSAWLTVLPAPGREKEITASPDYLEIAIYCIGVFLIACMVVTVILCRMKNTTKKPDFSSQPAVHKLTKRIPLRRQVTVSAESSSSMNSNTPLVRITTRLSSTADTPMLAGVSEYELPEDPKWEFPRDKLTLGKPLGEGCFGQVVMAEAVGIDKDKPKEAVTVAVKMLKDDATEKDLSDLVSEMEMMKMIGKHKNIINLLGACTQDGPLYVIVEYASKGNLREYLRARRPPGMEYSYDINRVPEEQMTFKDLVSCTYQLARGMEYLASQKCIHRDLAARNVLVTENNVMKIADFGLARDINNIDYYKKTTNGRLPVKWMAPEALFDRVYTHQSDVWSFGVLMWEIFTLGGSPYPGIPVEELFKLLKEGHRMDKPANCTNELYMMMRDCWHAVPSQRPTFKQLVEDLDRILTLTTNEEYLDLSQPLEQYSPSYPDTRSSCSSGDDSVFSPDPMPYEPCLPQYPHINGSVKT

[3] = molecular target: Rho-associated protein kinase 1 (Homo sapiens, UniProt Q13464); test: Inhibition of recombinant human GST-tagged ROCK1 catalytic domain expressed in baculovirus expression system by Z'-LYTE assay
Angiopoietin-1 receptor = Angiopoietin-1 receptor (Homo sapiens, UniProt Q02763); test: Inhibition of recombinant human GST-tagged cytoplasmic TEK expressed in baculovirus expression system by Z'-LYTE assay
[4] = molecular target: AMP-activated protein kinase (AMPK) alpha-1/beta-1/gamma-1 (Homo sapiens, UniProt P54619+Q13131+Q9Y478); test: Inhibition of full-length recombinant human GST and His-tagged AMPK alpha1/beta1/gamma1 expressed in baculovirus expression system by LanthaScreen assay
Sequence of AMP-activated protein kinase (AMPK) alpha-1/beta-1/gamma-1 (P54619 whole entry): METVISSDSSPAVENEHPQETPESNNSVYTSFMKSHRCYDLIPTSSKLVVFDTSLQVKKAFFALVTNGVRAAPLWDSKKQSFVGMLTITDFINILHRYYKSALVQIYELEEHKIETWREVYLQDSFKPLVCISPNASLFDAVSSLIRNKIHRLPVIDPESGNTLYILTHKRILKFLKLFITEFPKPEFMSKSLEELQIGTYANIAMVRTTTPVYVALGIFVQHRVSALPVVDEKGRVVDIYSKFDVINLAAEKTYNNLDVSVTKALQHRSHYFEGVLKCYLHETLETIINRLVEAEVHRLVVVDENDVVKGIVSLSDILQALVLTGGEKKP
Sequence of AMP-activated protein kinase (AMPK) alpha-1/beta-1/gamma-1 (Q9Y478 whole entry): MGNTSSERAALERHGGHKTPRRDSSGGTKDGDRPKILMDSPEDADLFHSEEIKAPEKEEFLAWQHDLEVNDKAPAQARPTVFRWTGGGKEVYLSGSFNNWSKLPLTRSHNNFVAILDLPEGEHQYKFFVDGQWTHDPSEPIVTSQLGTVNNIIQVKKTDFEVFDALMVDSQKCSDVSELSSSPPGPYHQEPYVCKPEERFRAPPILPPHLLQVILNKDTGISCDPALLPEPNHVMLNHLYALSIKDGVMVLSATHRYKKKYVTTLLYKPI
Sequence of AMP-activated protein kinase (AMPK) alpha-1/beta-1/gamma-1 (Q13131 whole entry): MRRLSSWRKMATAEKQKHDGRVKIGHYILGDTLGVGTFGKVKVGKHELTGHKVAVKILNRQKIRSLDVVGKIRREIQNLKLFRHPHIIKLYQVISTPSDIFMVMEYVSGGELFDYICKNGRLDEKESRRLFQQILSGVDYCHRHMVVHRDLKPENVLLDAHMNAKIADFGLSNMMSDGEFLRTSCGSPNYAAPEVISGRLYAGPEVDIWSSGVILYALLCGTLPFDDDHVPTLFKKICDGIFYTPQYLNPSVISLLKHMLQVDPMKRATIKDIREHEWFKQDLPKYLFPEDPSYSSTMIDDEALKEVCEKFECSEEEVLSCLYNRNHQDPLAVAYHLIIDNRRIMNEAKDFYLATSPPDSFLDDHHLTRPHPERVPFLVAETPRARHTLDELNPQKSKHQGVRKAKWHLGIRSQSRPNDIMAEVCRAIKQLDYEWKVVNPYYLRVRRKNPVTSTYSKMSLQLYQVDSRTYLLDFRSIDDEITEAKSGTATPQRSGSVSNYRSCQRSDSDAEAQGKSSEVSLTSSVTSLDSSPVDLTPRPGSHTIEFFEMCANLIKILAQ

[5] = molecular target: Casein kinase II subunit alpha (Homo sapiens, UniProt P68400); test: Inhibition of full-length recombinant human His-tagged CSNK2A1 expressed in baculovirus expression system by Z'-LYTE assay
[6] = molecular target: Mitogen-activated protein kinase 1 (Homo sapiens, UniProt P28482); test: Inhibition of full-length recombinant human GST-tagged MAPK1 expressed in Escherichia coli by Z'-LYTE assay
[7] = molecular target: T2, MAP kinase-activated protein kinase 5 (Homo sapiens, UniProt Q8IW41); test: Inhibition of full-length recombinant human His-tagged MAPKAPK5 expressed in baculovirus expression system by Z'-LYTE assay
T2 sequence (Q8IW41 whole entry): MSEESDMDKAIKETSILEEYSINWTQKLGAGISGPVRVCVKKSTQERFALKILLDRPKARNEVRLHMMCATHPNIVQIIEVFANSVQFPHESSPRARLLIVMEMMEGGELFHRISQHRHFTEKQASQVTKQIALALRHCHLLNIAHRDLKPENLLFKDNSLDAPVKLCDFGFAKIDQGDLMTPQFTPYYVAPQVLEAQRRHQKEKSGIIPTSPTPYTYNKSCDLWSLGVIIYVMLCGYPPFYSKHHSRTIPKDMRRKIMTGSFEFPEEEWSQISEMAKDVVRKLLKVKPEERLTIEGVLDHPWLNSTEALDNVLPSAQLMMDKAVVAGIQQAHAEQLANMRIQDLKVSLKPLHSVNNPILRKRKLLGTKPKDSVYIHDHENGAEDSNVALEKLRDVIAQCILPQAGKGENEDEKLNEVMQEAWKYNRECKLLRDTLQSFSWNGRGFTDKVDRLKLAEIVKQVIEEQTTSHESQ

[8] = molecular target: T3, Beta-adrenergic receptor kinase 1 (Homo sapiens, UniProt P25098); test: Inhibition of full-length recombinant human His-tagged ADRBK1 expressed in baculovirus expression system by Z'-LYTE assay
T3 sequence (P25098 whole entry): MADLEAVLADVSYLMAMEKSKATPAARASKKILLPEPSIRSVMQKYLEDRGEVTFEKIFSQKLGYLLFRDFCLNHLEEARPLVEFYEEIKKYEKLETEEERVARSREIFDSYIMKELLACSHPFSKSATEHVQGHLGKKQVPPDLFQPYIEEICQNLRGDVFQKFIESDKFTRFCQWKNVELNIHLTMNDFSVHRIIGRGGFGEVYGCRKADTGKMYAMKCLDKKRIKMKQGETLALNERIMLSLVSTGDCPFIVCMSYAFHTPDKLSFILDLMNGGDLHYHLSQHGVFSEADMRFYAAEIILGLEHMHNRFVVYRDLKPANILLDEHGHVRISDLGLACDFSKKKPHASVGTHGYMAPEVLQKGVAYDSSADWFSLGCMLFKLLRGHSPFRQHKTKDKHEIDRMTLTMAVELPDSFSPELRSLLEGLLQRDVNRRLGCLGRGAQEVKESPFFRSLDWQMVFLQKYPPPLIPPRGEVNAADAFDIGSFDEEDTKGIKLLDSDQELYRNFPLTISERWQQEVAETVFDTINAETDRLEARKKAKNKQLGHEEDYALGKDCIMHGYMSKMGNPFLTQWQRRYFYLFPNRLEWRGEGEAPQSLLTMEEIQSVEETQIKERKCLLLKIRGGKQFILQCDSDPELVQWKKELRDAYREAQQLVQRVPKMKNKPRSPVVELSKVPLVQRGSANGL

SRSF protein kinase 1 = SRSF protein kinase 1 (Homo sapiens, UniProt Q96SB4); test: Inhibition of full-length recombinant human His-tagged SRPK1 expressed in baculovirus expression system by Z'-LYTE assay
[9] = molecular target: Cyclin-dependent kinase 7 (Homo sapiens, UniProt P50613); test: Inhibition of full-length recombinant human His-tagged CDK7 expressed in baculovirus expression system by Adapta assay
Sequence of Cyclin-dependent kinase 7 (P50613 whole entry): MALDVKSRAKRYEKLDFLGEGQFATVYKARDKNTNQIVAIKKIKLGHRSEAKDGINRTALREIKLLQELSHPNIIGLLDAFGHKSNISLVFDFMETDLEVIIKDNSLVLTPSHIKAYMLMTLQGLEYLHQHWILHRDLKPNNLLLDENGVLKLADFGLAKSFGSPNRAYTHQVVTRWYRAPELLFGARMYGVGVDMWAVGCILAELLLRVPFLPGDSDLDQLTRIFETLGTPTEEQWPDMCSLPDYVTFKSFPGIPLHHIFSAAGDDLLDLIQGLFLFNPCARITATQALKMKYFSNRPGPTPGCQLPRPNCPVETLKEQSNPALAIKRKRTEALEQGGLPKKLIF

CDK9/cyclin T1 = CDK9/cyclin T1 (Homo sapiens, UniProt P50750); test: Inhibition of full-length recombinant human His-tagged CDK9/cyclin T1 expressed in baculovirus expression system by Adapta assay
Sequence of CDK9/cyclin T1 (O60563 whole entry, the tested form may be a part): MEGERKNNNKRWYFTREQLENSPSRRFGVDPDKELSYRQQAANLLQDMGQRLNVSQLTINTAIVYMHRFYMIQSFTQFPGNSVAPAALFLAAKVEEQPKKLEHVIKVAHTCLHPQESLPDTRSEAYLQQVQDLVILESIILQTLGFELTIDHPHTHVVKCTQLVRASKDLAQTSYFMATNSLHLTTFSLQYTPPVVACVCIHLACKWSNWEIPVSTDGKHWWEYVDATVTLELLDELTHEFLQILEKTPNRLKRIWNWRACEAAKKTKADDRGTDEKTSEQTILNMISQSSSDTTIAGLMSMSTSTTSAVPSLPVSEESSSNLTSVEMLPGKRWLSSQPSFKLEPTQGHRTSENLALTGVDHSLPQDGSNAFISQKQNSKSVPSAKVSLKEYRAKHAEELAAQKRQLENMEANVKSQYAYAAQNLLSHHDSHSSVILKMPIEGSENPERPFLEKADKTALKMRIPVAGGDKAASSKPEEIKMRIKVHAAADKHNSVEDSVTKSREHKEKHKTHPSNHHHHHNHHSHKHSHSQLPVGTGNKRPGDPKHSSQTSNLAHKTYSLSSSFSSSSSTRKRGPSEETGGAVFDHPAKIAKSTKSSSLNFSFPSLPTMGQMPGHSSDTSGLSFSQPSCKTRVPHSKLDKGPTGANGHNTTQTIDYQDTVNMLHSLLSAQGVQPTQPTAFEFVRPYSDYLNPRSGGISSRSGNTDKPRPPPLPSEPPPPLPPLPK
Sequence of CDK9/cyclin T1 (P50750 whole entry, the tested form may be a part): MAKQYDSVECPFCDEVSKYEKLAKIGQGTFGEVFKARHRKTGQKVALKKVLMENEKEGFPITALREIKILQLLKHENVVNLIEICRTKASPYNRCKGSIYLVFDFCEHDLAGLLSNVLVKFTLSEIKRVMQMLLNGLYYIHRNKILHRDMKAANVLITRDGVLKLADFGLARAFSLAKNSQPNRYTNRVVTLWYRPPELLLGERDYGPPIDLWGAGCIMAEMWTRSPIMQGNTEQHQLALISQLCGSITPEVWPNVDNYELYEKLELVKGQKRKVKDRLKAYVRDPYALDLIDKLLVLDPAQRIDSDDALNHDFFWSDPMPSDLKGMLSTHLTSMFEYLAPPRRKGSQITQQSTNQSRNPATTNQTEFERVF

[10] = molecular target: Hepatocyte growth factor receptor (Homo sapiens, UniProt P08581); test: Inhibition of recombinant human N-terminal His-tagged cytoplasmic MET (956 to 1390 residues) expressed in baculovirus expression system by Z'-LYTE assay
Sequence of Hepatocyte growth factor receptor (P08581 whole entry, the tested form may be a part): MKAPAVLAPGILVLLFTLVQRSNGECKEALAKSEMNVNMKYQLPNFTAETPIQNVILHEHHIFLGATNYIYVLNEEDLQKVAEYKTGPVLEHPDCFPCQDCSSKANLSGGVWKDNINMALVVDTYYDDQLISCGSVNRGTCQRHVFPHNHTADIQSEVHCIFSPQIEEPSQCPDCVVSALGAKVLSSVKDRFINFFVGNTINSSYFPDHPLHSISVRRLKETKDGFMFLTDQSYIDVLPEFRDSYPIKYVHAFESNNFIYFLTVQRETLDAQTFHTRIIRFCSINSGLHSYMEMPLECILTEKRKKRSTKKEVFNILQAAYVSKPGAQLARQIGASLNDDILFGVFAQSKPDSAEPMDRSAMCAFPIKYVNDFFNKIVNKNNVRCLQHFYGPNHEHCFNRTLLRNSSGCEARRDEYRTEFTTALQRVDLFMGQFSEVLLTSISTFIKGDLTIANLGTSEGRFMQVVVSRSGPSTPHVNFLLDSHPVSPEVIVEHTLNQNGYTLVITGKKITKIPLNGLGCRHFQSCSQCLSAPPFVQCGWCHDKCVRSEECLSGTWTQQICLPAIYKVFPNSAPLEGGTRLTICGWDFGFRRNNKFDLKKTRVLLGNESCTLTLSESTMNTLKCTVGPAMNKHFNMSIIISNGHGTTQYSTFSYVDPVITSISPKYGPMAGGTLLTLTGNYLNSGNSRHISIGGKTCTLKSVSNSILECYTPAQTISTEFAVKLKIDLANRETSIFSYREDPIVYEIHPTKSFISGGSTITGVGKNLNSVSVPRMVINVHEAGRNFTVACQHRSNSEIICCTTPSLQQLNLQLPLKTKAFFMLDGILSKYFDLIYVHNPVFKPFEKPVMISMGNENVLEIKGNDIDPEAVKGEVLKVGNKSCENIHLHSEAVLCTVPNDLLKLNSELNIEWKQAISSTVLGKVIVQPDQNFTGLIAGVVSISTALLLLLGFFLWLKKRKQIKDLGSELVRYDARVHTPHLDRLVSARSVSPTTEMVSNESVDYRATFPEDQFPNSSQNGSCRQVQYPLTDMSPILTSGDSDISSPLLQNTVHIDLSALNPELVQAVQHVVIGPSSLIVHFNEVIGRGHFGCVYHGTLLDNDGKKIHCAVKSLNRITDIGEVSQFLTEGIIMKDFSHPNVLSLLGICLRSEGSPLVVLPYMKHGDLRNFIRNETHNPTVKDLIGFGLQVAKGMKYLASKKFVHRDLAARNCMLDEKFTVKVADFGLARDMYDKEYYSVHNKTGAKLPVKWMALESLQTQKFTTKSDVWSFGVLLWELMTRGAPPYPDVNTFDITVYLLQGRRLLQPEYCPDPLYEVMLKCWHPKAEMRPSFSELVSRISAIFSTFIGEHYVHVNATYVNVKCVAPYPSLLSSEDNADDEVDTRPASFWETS

| Structure (SMILES) | IC50 [1] | IC50 [2] | IC50 [3] | IC50 (Angiopoietin-1 receptor) | IC50 [4] | IC50 [5] | IC50 [6] | IC50 [7] | IC50 [8] | IC50 (SRSF protein kinase 1) | IC50 [9] | IC50 (CDK9/cyclin T1) | IC50 [10] |
| --- | --- | --- | --- | --- | --- | --- | --- | --- | --- | --- | --- | --- | --- |
| Cn1cc(-c2cnc3c(-c4csc(C(=O)NCC(F)(F)F)c4)cnn3c2)cn1 | 63 nM | 170 nM | 780 nM | 4700 nM | 26 nM | > 100000 nM | 18000 nM | 19000 nM | 23000 nM | 28000 nM | 53 nM | 35 nM | 4000 nM |
| Cc1sc(C(=O)N[C@@H]2[C@H](N)CCCC2(F)F)cc1-c1cnn2cc(Cl)cnc12 | 810 nM | 17000 nM | 2300 nM | > 100000 nM | 53 nM | > 100000 nM | 1200 nM | > 100000 nM | 11000 nM | 12000 nM | < 10 nM | 240 nM | 8500 nM |
| O=C(NCC(F)(F)F)c1cc(-c2cnn3cc(-c4ccc(OCCN5CCCCC5)cc4)cnc23)cs1 | 27 nM | 70 nM | 360 nM | 4700 nM | < 10 nM | 8300 nM | 12000 nM | 9600 nM | 610 nM | > 100000 nM | 30 nM | 45 nM | 1400 nM |
| Cn1cc(-c2cnc3c(-c4csc(C(=O)N[C@@H]5CCCC[C@@H]5N)c4)cnn3c2)cn1 (racemic) | 200 nM | 11 nM | 17 nM | 660 nM | 4.6 nM | > 10000 nM | 230 nM | 1400 nM | 160 nM | 140 nM | 4.1 nM | 12 nM | 410 nM |
